Data published in patent publication US20120220546A1, “COMPOSTIONS DESIGNED FOR THE INHIBITION AND/OR BLOCKING OF THE EPITHELIAL/MESENCHYMAL TRANSITION” (priority 2009, published 2012).

System: zebrafish embryos
Test: Zebrafish embryo model of EMT inhibition
Assay type: in vivo
Settings: 100 μM DAPT dissolved in the medium, 32-hpf embryos
Method: The necessary embryos to develop the study were obtained and kept at 28.5° C. in the incubator until the treatment was to begin (24 hpf and 32 hpf). The embryos were dechorionated at 24 hpf and deposited on a Petri dish with E3 medium. Prior to injecting the product, the fish were treated with 0.04% tricaine and, once they were asleep, they were placed on an agarose plate with a number of wedge-shaped grooves, where the embryos were aligned and immobilised in order to be injected. The mixture of the assay product to be injected was loaded in the injection capillary and a volume of 15 nl was injected in the perivitelline space. 20 embryos were injected per condition. […] These were deposited in 24-well plates (5 embryos per well) in 0.5 ml of E3 medium without methylene blue or antibiotic, and incubated at 28.5° C. until they were to be analyzed. As a control, embryos were injected with HBSS +0.5% rhodamine-dextran. […]
The embryos were analyzed at 53, 72 and 96 hpf, and the presence of the following phenotypes was searched for in each of the embryos used in the study: • alteration of the somite bonds (somite boundaries). • morphological alterations of the embryos in general. • appearance of edemas in the pericardial area. • morphological alterations in the heart, as well as alterations in blood circulation and alterations in the formation of the vascular system.

C[C@H](NC(=O)Cc1cc(F)cc(F)c1)C(=O)N[C@H](C(=O)OC(C)(C)C)c1ccccc1 [DAPT]
phenotype of positive control: appearance of pericardial edemas, alterations of the somite bonds, and alteration or absence of blood circulation
